From patent publication US20060216238A1, “Compositions and methods for targeting or imaging a tissue in a vertebrate subject” (priority 2005, published 2006)

Experiments:
[1] = Trafficking of OG-CPMV in vivo by tissue fluorescence measurements; set-up: species or system mouse; conditions: oral, exception GI tissues and lymph nodes in 1 of 3 mice
Procedure: Inoculation of mice with free Oregon Green 488 dye. Mice were administered 3.81 μg per mouse of free OG-488 dye by oral gavage, the equivalent amount of dye as that attached to the CPMV particles given by oral gavage. One mouse per day for three days post inoculation was perfused and tissues were isolated for fluorescence measurements. Similarly, by the intravenous route three mice were injected with 0.509 μg per mouse of free OG-488 dye, the equivalent amount of dye as that attached to the CPMV particles administered i.v. Tissues were harvested from mice following perfusion as described above.
Fluorescence measurements. Tissues were isolated and homogenized in PBS, then centrifuged at 10,000 g for 10 minutes at 4° C. to precipitate the cell debris. The OG-488-specific fluorescence emissions in the clarified tissue supernatants were determined using a Varian Cary Eclipse fluorescence spectrophotometer. A control sample of sham-inoculated tissue supernatant from each tissue was spiked with a known amount of OG-CPMV and the tissue-specific dye excitation and emission were determined for each tissue. The determined tissue specific emission λ value was then used in five separate scans of each tissue supernatant sample, following which the spectra were averaged and the emission value of the sham-inoculated control sample was subtracted as background.

[2] = tested on: HUVECS; assay: Endothelial cell migration assay; type: cell-based, human
Procedure: Endothelial cell migration assay. Migration of calcein AM labeled cells (5 μM, 30 min, at 37° C.) was tested in the presence or absence of the CPMV chimeras using cell migration chambers Briefly, the lower wells were loaded with buffers containing various chemo-attractants. The framed filter membrane was positioned on the top and 50,000 calcein labeled HUVECs treated with/without the targeting chimeras were added to the top well above the membrane. The assembly was incubated for 2 h at 37° C. and the number of cells that transmigrated to the bottom wells was quantified by measuring the intensity of fluorescence at 488 nm.

[3] = tested on: CD8+ T cells producing IFN-γ and TNF-α; assay: Virus-specific CD8+ T-cell activity, ICCS assay; type: in vivo, mouse
[4] = tested on: LCMV; conditions: mouse, in vivo

Substance: Oregon Green 488 (OG-488) carboxylic acid, succinimidyl ester [free OG-488 dye]
- fluorescence in tissues due to free dye [1]: negligible in all tissues at all time points

Substance: VEGF [reference compound]
- stimulation of migration of cells across the filter [2]: 30%

Substance: Lymphocytic choriomeningitis virus (LCMV), Armstrong strain
- CD8+ T cells producing IFN-γ ([3]; assay 8 days after boosting): 13.53%
- CD8+ T cells producing TNF-α ([3]; assay 8 days after boosting): 7.3%
- CD8+ T-cells producing IFN-γ ([3]; primary response assay): 10%
- CD8+ T-cells producing TNF-α ([3]; primary response assay): 6.5%
- survival of lethal i.c. LCMV challenge [4]: enabled the mice to survive the lethal i.c. inoculation
- survival of lethal i.c. LCMV challenge, boost experiment [4]: All mice inoculated with LCMV 6 weeks before survived
